Publication PMC12894981, “Structure-guided screening identifies Tucatinib as dual inhibitor for MCT1/2” (EMBO Reports, 2025)
Where a chain is given by its changes, count along the chain named. Read-outs that look alike come from different tables or passages of the source.

What was measured:
[1] = tested on: T1, MCT1-Basigin-2; assay: pyruvate uptake, pyronicSF fluorescence, transfected HEK-293T cells; assay type: cell-based, Homo sapiens; details: 5 mM pyruvate; 30 min pre-incubation
T1 construct: gene SLC16A1; fusion MCT1-Basigin-2; expressed in HEK-293T cells with pyronicSF for transport; with Basigin

[2] = target: T2, MCT2-embigin (Homo sapiens, UniProt O60669, Y34A); assay: bio-layer interferometry, SSA biosensor, […] fit; assay type: binding
T2 construct: gene SLC16A7; fusion: embigin C-terminus joined by GGSG linker to MCT2 N-terminus, C-terminal twin-Strep tag; HEK-293F, DDM then GDN, heterodimer; in transport tests expressed as fusion in HEK-293T cells; with Embigin
T2 sequence (O60669 1-478 Y34A): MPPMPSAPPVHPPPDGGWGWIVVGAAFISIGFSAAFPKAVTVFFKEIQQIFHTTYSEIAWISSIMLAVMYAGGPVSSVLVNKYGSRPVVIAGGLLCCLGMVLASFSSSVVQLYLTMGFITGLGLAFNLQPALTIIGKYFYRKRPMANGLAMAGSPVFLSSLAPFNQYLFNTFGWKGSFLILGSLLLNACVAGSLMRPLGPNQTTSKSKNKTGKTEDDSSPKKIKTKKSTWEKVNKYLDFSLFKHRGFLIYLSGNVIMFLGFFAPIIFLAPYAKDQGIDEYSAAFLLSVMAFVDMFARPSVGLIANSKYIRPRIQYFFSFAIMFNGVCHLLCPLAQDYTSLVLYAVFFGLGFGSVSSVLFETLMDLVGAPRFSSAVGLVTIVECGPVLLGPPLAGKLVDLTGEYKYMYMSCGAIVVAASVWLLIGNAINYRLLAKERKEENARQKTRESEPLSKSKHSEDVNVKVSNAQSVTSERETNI
T2 sequence (Q6PCB8 33-327 partner): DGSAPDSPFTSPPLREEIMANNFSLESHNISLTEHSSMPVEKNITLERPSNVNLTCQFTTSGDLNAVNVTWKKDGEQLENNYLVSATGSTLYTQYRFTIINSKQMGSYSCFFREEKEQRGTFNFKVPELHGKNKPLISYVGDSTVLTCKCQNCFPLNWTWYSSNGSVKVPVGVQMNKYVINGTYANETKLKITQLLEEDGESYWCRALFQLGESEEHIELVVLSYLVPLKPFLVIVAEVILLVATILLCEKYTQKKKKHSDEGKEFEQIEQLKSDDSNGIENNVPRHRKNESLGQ

[3] = target: T3, MCT2-embigin (Homo sapiens, UniProt O60669, F351A); assay: bio-layer interferometry, SSA biosensor, […] fit; assay type: binding
T3 construct: gene SLC16A7; fusion: embigin C-terminus joined by GGSG linker to MCT2 N-terminus, C-terminal twin-Strep tag; HEK-293F, DDM then GDN, heterodimer; in transport tests expressed as fusion in HEK-293T cells; with Embigin
T3 sequence (O60669 1-478 F351A): T2 sequence (O60669 1-478 Y34A) with A34Y, F351A
T3 sequence (Q6PCB8 33-327 partner): T2 sequence (Q6PCB8 33-327 partner)

[4] = target: T4, MCT2-embigin (Homo sapiens, UniProt O60669); assay: pyruvate uptake, pyronicSF fluorescence, transfected HEK-293T cells; assay type: cell-based
T4 construct: gene SLC16A7; fusion: embigin C-terminus joined by GGSG linker to MCT2 N-terminus, C-terminal twin-Strep tag; HEK-293F, DDM then GDN, heterodimer; in transport tests expressed as fusion in HEK-293T cells; with Embigin
T4 sequence (O60669 1-478): T2 sequence (O60669 1-478 Y34A) with A34Y
T4 sequence (Q6PCB8 33-327 partner): T2 sequence (Q6PCB8 33-327 partner)

[5] = target: T4, MCT2-embigin; assay: bio-layer interferometry, SSA biosensor, […] fit
[6] = target: T5, MCT2-embigin (Homo sapiens, UniProt O60669, F262A); assay: bio-layer interferometry, SSA biosensor, […] fit; assay type: binding
T5 construct: gene SLC16A7; fusion: embigin C-terminus joined by GGSG linker to MCT2 N-terminus, C-terminal twin-Strep tag; HEK-293F, DDM then GDN, heterodimer; in transport tests expressed as fusion in HEK-293T cells; with Embigin
T5 sequence (O60669 1-478 F262A): T2 sequence (O60669 1-478 Y34A) with A34Y, F262A
T5 sequence (Q6PCB8 33-327 partner): T2 sequence (Q6PCB8 33-327 partner)

[7] = target: T2, MCT2-embigin; assay: bio-layer interferometry, SSA biosensor, […] fit; assay type: binding; details: pH 7.4, 25 °C
[8] = target: T5, MCT2-embigin; assay: bio-layer interferometry, SSA biosensor, […] fit; assay type: binding; details: pH 7.4, 25 °C
[9] = target: T4, MCT2-embigin; assay: bio-layer interferometry, SSA biosensor, […] fit; assay type: binding; details: read-out: affinity (KD)

IC50 [1] [µM]	Kd [2] [µM]	Kd [3] [µM]	IC50 [4] [µM]	Kd [5] [µM]	Kd [6] [µM]	KD [8]	Kd [9] [µM]	SMILES	KD [7]
1.24								Cc1[nH]nc(C(F)(F)F)c1Cc1sc2c(c1C(=O)N1C[C@](C)(O)CO1)c(=O)n(C)c(=O)n2C(C)C [AZD3965]	
2.6	13.8	211	2.71	0.6	33.2			Cc1cc(Nc2ncnc3ccc(NC4=NC(C)(C)CO4)cc23)ccc1Oc1ccn2ncnc2c1 [Tucatinib]	
			0.981			MCT2(F262A)-embigin (B)	0.6	Cc1n[nH]c(C)c1Cc1sc2c(c1C(=O)N1C[C@H](O)CO1)c(=O)n(C)c(=O)n2CC(C)C [AR-C155858]	The binding kinetics of AR-C155858 bound to MCT2(Y34A)-embigin (A)
